US20260069582A1, “POLYMORPH OF GLP-1R AGONIST COMPOUND, PREPARATION METHOD THEREFOR, AND USE THEREOF” (MINDRANK THERAPEUTICS (SUZHOU) NEW DRUG RESEARCH AND …, priority 2022, published 2026)
Counter-ions that a name gives are not always drawn. Like-named read-outs stand apart in the source and are kept apart here. Each block holds one compound with its values, some of them ahead of it.

Experiments:
[1] = Hygroscopic behavior test by dynamic vapor sorption (DVS); format: physicochemical; conditions: 25° C.
Excerpt: The experimental method for characterizing an acid salt or a base salt of compound I by dynamic vapor sorption (DVS) was as follows: A small amount of a powder of a polymorph of compound I was taken and placed into a precise sample tray that matches the instrument. After the sample was loaded, the sample tray was sent into the instrument for analysis. In this patent, the instrument model used in the dynamic vapor sorption analysis was Intrinsic PLUS; the experimental parameter was set as follows: A constant temperature of 25° C. was set; the mass percent change rate per unit time (dm/dt)=0.02%/min was used as a criterion for determining that a balance is achieved; the program humidity change cycle was set as follows: The initial relative humidity was 0%, and the endpoint relative humidity was 90%.

[2] = Solid state stability study (purity by HPLC and crystal form change); format: physicochemical; conditions: for Initial purity (%): before storage, HPLC
[3] = Drug absorption experiment in SD rats, intravenous administration; format: in vivo; conditions: rat, plasma, tail vein injection
Method: Blood samples were collected at different time points before and after administration and then separated to prepare plasma. The concentration of the drug in plasma was determined by liquid chromatography-tandem mass spectrometry, and pharmacokinetic parameters were calculated using a non-compartmental model.

[4] = Drug absorption experiment in SD rats, intragastric administration; format: in vivo; conditions: for absolute bioavailability: after dose correction, based on AUC0-t
Method: Blood samples were collected at different time points after administration and then separated to prepare plasma. The concentration of the drug in plasma was determined by liquid chromatography-tandem mass spectrometry, and pharmacokinetic parameters were calculated using a non-compartmental model.

[5] = Equilibrium solubility study in biological media; format: physicochemical; conditions: 37 °C, thermodynamic from solid, 37±2° C.
Method: In the tests, the solids were suspended in corresponding buffers to formulate suspensions (˜10 mg/mL), and the suspensions were mixed at 37±2° C. After 24 h, samples of the suspensions were taken. The supernatant was filtered, and the concentration was determined.

[6] = Transformation of metastable crystal forms on drying or standing (XRPD); format: physicochemical
Method: After being stirred at room temperature for about 3 d, the mixture was filtered under vacuum. The resulting filter cake was metastable crystal form J of compound I. The product was analyzed and characterized by XRPD (FIG. 28).
The mixture was stirred at room temperature for 16 h and filtered. The resulting filter cake was metastable crystal form K of compound I. The product was analyzed and characterized by XRPD (FIG. 29).
The mixture was stirred at room temperature for about 3 d and filtered. The filter cake was dried at 50° C. for 16 h to give metastable crystal form L of compound I. The product was analyzed and characterized by XRPD (FIG. 30).
The mixture was stirred at 5° C. for about 1 d and filtered. The resulting filter cake was metastable crystal form M of compound I. The product was analyzed and characterized by XRPD (FIG. 31).
Crystal form C of compound I was heated to 80° C. at 10° C./min to give metastable crystal form N of compound I. The product was analyzed and characterized by XRPD (FIG. 32).

[7] = 25° C./60% RH, 7 days (long-term storage)
[8] = 40° C./75% RH, 7 days (accelerated)
[9] = 60° C., RH<30%, 7 days (high-temperature)

SMILES: O=C(O)c1ccc2nc(CN3CCC(Oc4cccc(COc5ccc(Cl)cc5F)n4)CC3)n(C[C@@H]3CCO3)c2c1 [Crystal form A of compound I, (S)-2-((4-((6-((4-chloro-2-fluorophenoxy)methyl)pyridin-2-yl)oxy)piperidin-1-yl)methyl)-1-(oxetan-2-ylmethyl)-1H-benzo[d]imidazole-6-carboxylic acid tromethamine salt (1:1)]
- Sample weight change at 80% RH (%) ([1]; DVS, 80% RH): 1.03%
- Whether the crystal form is changed ([1]; after DVS, 0-90% RH): No
- Purity (%) [2, 7]: 99.18%
- Purity (%) [2, 8]: 99.17%
- Purity (%) [2, 9]: 98.83%
- Initial purity (%) [2]: 99.30%
- AUC(0-t) ([3]; 2 mg/kg): 2440 ng·h/mL
- Cmax ([3]; 2 mg/kg): 7640 ng/mL
- half-life ([3]; 2 mg/kg): 1.88 h
- AUC(0-t) ([4]; 5 mg/kg): 2670 ng·h/mL
- Cmax ([4]; 5 mg/kg): 847 ng/mL
- Tmax ([4]; 5 mg/kg): 0.25 h
- t1/2 ([4]; 5 mg/kg): 3.59 h
- absolute bioavailability [4]: 43.7%
- solubility thermodynamic at 24 h ([5]; FaSSIF): 110 µg/mL
- solubility thermodynamic at 24 h ([5]; FeSSIF): 450 µg/mL
- solubility thermodynamic at 24 h ([5]; water, H2O): 440 µg/mL

SMILES: O=C(O)c1ccc2nc(CN3CCC(Oc4cccc(COc5ccc(Cl)cc5F)n4)CC3)n(C[C@@H]3CCO3)c2c1 [Crystal form B of compound I, (S)-2-((4-((6-((4-chloro-2-fluorophenoxy)methyl)pyridin-2-yl)oxy)piperidin-1-yl)methyl)-1-(oxetan-2-ylmethyl)-1H-benzo[d]imidazole-6-carboxylic acid tromethamine salt (1:1)]
- Purity (%) [2, 7]: 98.74%
- Purity (%) [2, 8]: 98.73%
- Purity (%) [2, 9]: 98.67%
- Initial purity (%) [2]: 98.80%

SMILES: O=C(O)c1ccc2nc(CN3CCC(Oc4cccc(COc5ccc(Cl)cc5F)n4)CC3)n(C[C@@H]3CCO3)c2c1 [Crystal form I of compound I, (S)-2-((4-((6-((4-chloro-2-fluorophenoxy)methyl)pyridin-2-yl)oxy)piperidin-1-yl)methyl)-1-(oxetan-2-ylmethyl)-1H-benzo[d]imidazole-6-carboxylic acid tromethamine salt (1:1)]
- Purity (%) [2, 7]: 98.41%
- Purity (%) [2, 8]: 98.47%
- Purity (%) [2, 9]: 98.48%
- Initial purity (%) [2]: 98.44%

SMILES: O=C(O)c1ccc2nc(CN3CCC(Oc4cccc(COc5ccc(Cl)cc5F)n4)CC3)n(C[C@@H]3CCO3)c2c1 [Free form of compound I, (S)-2-((4-((6-((4-chloro-2-fluorophenoxy)methyl)pyridin-2-yl)oxy)piperidin-1-yl)methyl)-1-(oxetan-2-ylmethyl)-1H-benzo[d]imidazole-6-carboxylic acid]
- Purity (%) [2, 7]: 98.94%
- Purity (%) [2, 8]: 95.86%
- Purity (%) [2, 9]: 89.15%
- Initial purity (%) [2]: 98.98%
- AUC(0-t) ([3]; 1 mg/kg): 1280 ng·h/mL
- Cmax ([3]; 1 mg/kg): 3200 ng/mL
- half-life ([3]; 1 mg/kg): 3.89 h
- half-life ([4]; SD, rat, plasma, po, 5 mg/kg): 2.84 h
- AUC(0-t) ([4]; SD, rat, plasma, po, 5 mg/kg, read-out: AUC0-t): 1400 ng·h/mL
- Cmax ([4]; SD, rat, plasma, po, 5 mg/kg, read-out: Cmax): 600 ng/mL
- Tmax ([4]; SD, rat, plasma, po, 5 mg/kg, read-out: Tmax): 0.5 h
- absolute bioavailability [4]: 21.8%

SMILES: O=C(O)c1ccc2nc(CN3CCC(Oc4cccc(COc5ccc(Cl)cc5F)n4)CC3)n(C[C@@H]3CCO3)c2c1 [crystal form J, (S)-2-((4-((6-((4-chloro-2-fluorophenoxy)methyl)pyridin-2-yl)oxy)piperidin-1-yl)methyl)-1-(oxetan-2-ylmethyl)-1H-benzo[d]imidazole-6-carboxylic acid tromethamine salt (1:1)]
- Crystal form transformation ([6]; dried at 40° C. for 16 h): transformed to crystal form A

Next, values leading:

- Crystal form transformation ([6]; dried at 50° C. for 24 h): transformed to crystal form A
SMILES: O=C(O)c1ccc2nc(CN3CCC(Oc4cccc(COc5ccc(Cl)cc5F)n4)CC3)n(C[C@@H]3CCO3)c2c1 [crystal form K, (S)-2-((4-((6-((4-chloro-2-fluorophenoxy)methyl)pyridin-2-yl)oxy)piperidin-1-yl)methyl)-1-(oxetan-2-ylmethyl)-1H-benzo[d]imidazole-6-carboxylic acid tromethamine salt (1:1)]

- Crystal form transformation ([6]; dried under vacuum at room temperature for about 16 h): transformed to crystal form D
- Crystal form transformation ([6]; let stand in an open flask at room temperature for about 16 h): transformed to crystal form D
SMILES: O=C(O)c1ccc2nc(CN3CCC(Oc4cccc(COc5ccc(Cl)cc5F)n4)CC3)n(C[C@@H]3CCO3)c2c1 [crystal form L, (S)-2-((4-((6-((4-chloro-2-fluorophenoxy)methyl)pyridin-2-yl)oxy)piperidin-1-yl)methyl)-1-(oxetan-2-ylmethyl)-1H-benzo[d]imidazole-6-carboxylic acid tromethamine salt (1:1)]

- Crystal form transformation ([6]; dried at 50° C. for 16 h): transformed to crystal form B
SMILES: O=C(O)c1ccc2nc(CN3CCC(Oc4cccc(COc5ccc(Cl)cc5F)n4)CC3)n(C[C@@H]3CCO3)c2c1 [crystal form N, (S)-2-((4-((6-((4-chloro-2-fluorophenoxy)methyl)pyridin-2-yl)oxy)piperidin-1-yl)methyl)-1-(oxetan-2-ylmethyl)-1H-benzo[d]imidazole-6-carboxylic acid tromethamine salt (1:1)]
